In patent US20090281114A1, “INDOLYLALKYL DERIVATIVES OF PYRIMIDINYLPIPERAZINE AND METABOLITES THEREOF FOR TREATMENT OF ANXIETY, DEPRESSION, AND SEXUAL DYSFUNCTION” (Fabre-Kramer Pharmaceuticals, Inc., priority 2008, published 2009):
Counter-ions that a name gives are not always drawn.

molecular target: 5-HT1D binding site; assay: 5-HT1D binding site affinity (tritiated serotonin; method of Heuring and Peroutka with minor modifications); conditions: in vitro
Experimental: Determination of 5-HT1D binding properties was accomplished employing methodology such as that described by Heuring and Peroutka, J. Neurosci., 7(3), 1987, 894-903; with only minor modifications. In vitro IC50 (nM) test values were determined for the compounds of this invention employing tritiated serotonin.

IC50	Structure (SMILES)
4.9 nM	COc1cncnc1N1CCN(CCCc2c[nH]c3ccc(N(C)S(C)(=O)=O)cc23)CC1 [Example 65]
0.8 nM	COc1cncnc1N1CCN(CCCc2c[nH]c3ccc(O)cc23)CC1 [Example 55, 1-[3-(5-Hydroxy-1H-indol-3-yl)propyl]-4-(5-methoxy-4-pyrimidinyl)piperazine]
4.2 nM	COc1cncnc1N1CCN(CCCc2c[nH]c3ccccc23)CC1C (stereo not shown) [Example 62]
2.2 nM	CCOc1ccc2[nH]cc(CCCN3CCN(c4ncncc4OC)CC3)c2c1 [Example 71]
29 nM	COc1cncnc1N1CCN(CCCc2c[nH]c3cc(F)c(F)cc23)CC1 [Example 74]
5.2 nM	COc1cncnc1N1CCN(CCCc2c[nH]c3ccc(NS(C)(=O)=O)cc23)CC1 [Example 63]
1.1 nM	COc1ccc2[nH]cc(CCCN3CCN(c4ncncc4OC)CC3)c2c1 [Example 73]
19.1 nM	CCS(=O)(=O)N(C)c1ccc2[nH]cc(CCCN3CCN(c4ncncc4OC)C(C)C3)c2c1 (stereo not shown) [Example 69]
3 nM	COc1cncnc1N1CCN(CCCc2c[nH]c3ccc(F)cc23)CC1 [Example 60, 3-(3-(4-(5-methoxy-4-pyrimidinyl)-1-piperazinyl)propyl)-5-fluoro-1H-indole hydrochloride]
12.9 nM	CCS(=O)(=O)N(C)c1ccc2[nH]cc(CCCN3CCN(c4ncncc4OC)CC3)c2c1 [Example 68]
5.1 nM	COc1cncnc1N1CCN(CCCc2c[nH]c3c(F)ccc(F)c23)CC1 [Example 75]
8.1 nM	COc1cncnc1N1CCN(CCCc2c[nH]c3c(F)cc(F)cc23)CC1 [Example 76]
13.7 nM	CCS(=O)(=O)Nc1ccc2[nH]cc(CCCN3CCN(c4ncncc4OC)CC3)c2c1 [Example 67]
5 nM	COc1cncnc1N1CCN(CCC(C)c2c[nH]c3ccccc23)CC1 (stereo not shown) [Example 53, 1-[3-(1H-indol-3-yl)butyl]-4-(5-methoxy-4-pyrimidinyl)piperazine]
20.5 nM	CCC(CCc1c[nH]c2ccccc12)N1CCN(c2ncncc2OC)CC1 (stereo not shown) [Example 54, 3-[3-[4-(5-Methoxy-4-pyrimidinyl)-1-piperazinyl]pentyl]indole]
14.3 nM	COc1cncnc1N1CCN(CCCc2c[nH]c3ccc(OCc4ccccc4)cc23)CC1 [Example 72]
17.1 nM	CCS(=O)(=O)Nc1ccc2[nH]cc(CCCN3CCN(c4ncncc4OC)C(C)C3)c2c1 (stereo not shown) [Example 70, 1-[3-(5-Ethanesulfonylamino-1H-indol-3-yl)propyl]-4-(5-methoxy-4-pyrimidinyl)-3-methylpiperazine]

Structure (SMILES)	IC50
CCOc1cncnc1N1CCN(CCCc2c[nH]c3ccccc23)CC1 [Example 52, 4-(5-Ethoxy-4-pyrimidinyl)-1-[3-(1H-indol-3-yl)propyl]piperazine hydrochloride hydrate]	2 nM

test system: not given; assay: not given; conditions: not given

melting point	Structure (SMILES)
215 °C	COc1cncnc1N1CCN(CCCc2c[nH]c3ccc(O)cc23)CC1 (as salt: hydrochloride) [Example 55, 1-[3-(5-Hydroxy-1H-indol-3-yl)propyl]-4-(5-methoxy-4-pyrimidinyl)piperazine]
130 to 150 °C (dec.)	COc1ccc2[nH]cc(CCCN3CCN(c4ncncc4OC)CC3)c2c1 (as salt: HCl) [Example 73]
192 °C (dec.)	COc1cncnc1N1CCN(CCCc2c[nH]c3ccc(N)cc23)CC1 (as salt: salt) [Example 43, 3-[3-[4-(5-Methoxy-4-pyrimidinyl)-1-piperazinyl]propyl]-5-aminoindole]
153 to 154 °C	COc1cncnc1N1CCN(CCCc2c[nH]c3ccc(CCS(C)(=O)=O)cc23)CC1 [Example 50, 4-(5-Methoxy-4-pyrimidinyl)-1-[3-[5-[2-(methylsulfonyl)ethyl]-1H-indol-3-yl]propyl]piperazine]
205 to 207 °C	CCS(=O)(=O)N(C)c1ccc2[nH]cc(CCCN3CCN(c4ncncc4OC)C(C)C3)c2c1 (stereo not shown) (as salt: HCl) [Example 69]
220 to 223 °C	COc1cncnc1N1CCN(CCCc2c[nH]c3ccc(CCS(C)(=O)=O)cc23)CC1C (stereo not shown) (as salt: salt) [Example 51, 4-(5-Methoxy-4-pyrimidinyl)-1-[3-[5-[2-(methylsulfonyl)ethyl]-1H-indol-3-yl]propyl]-3-methylpiperazine]
112 to 114 °C	CCOc1ccc2[nH]cc(CCCN3CCN(c4ncncc4OC)CC3)c2c1 [Example 71]
212 to 214 °C	CCS(=O)(=O)Nc1ccc2[nH]cc(CCCN3CCN(c4ncncc4OC)C(C)C3)c2c1 (stereo not shown) (as salt: HCl) (hydrate or solvate) [Example 70, 1-[3-(5-Ethanesulfonylamino-1H-indol-3-yl)propyl]-4-(5-methoxy-4-pyrimidinyl)-3-methylpiperazine]
102 to 104 °C	COc1cncnc1N1CCN(CCCc2c[nH]c3cc(F)c(F)cc23)CC1 [Example 74]
140 to 145 °C	CCS(=O)(=O)Nc1ccc2[nH]cc(CCCN3CCN(c4ncncc4OC)CC3)c2c1 (as salt: HCl) [Example 67]
204 to 206 °C	COc1cncnc1N1CCN(CCCc2c[nH]c3ccc(CNS(C)(=O)=O)cc23)CC1 (as salt: hydrochloride) (hydrate or solvate) [Example 31, 4-(5-Methoxy-4-pyrimidinyl)-1-[[5-[[(methylsulfonyl)amino]methyl]-1H-indol-3-yl]propyl]piperazine]
150 to 152 °C	COc1cncnc1N1CCN(CCCc2c[nH]c3ccc(NS(C)(=O)=O)cc23)CC1 (as salt: HCl) [Example 63]
198 to 200 °C (dec.)	COc1cncnc1N1CCN(CCCc2c[nH]c3ccc(OCC#N)cc23)CC1 (as salt: hydrochloride) [Example 45, 3-[3-[4-(5-Methoxy-4-pyrimidinyl)-1-piperazinyl]propyl]-5-(cyanomethyl)oxyindole]
185 °C (dec.)	COc1cncnc1N1CCN(CCCc2c[nH]c3ccccc23)CC1C (stereo not shown) (as salt: HCl) [Example 62]
100 to 101 °C	COc1cncnc1N1CCN(CCCc2c[nH]c3ccc(N4CCCC4=O)cc23)CC1.O=C(O)C(=O)O
160 to 165 °C	COc1cncnc1N1CCN(CCCc2c[nH]c3c(F)ccc(F)c23)CC1 [Example 75]
113 to 115 °C	CCS(=O)(=O)N(C)Cc1ccc2[nH]cc(CCCN3CCN(c4ncncc4OC)CC3)c2c1 [Example 38, 4-(5-Methoxy-4-pyrimidinyl)-1-[[5-[[methyl(ethylsulfonyl)amino]-methyl]-1H-indol-3-yl]propyl]piperazine]
119 to 122 °C	COc1cncnc1N1CCN(CCCc2c[nH]c3ccc(F)cc23)CC1 (as salt: hydrochloride) [Example 60, 3-(3-(4-(5-methoxy-4-pyrimidinyl)-1-piperazinyl)propyl)-5-fluoro-1H-indole hydrochloride]
73 to 75 °C	CCS(=O)(=O)N(Cc1ccccc1)Cc1ccc2[nH]cc(CCCN3CCN(c4ncncc4OC)CC3)c2c1 [Example 39, 4-(5-Methoxy-4-pyrimidinyl)-1-[[5-[[phenylmethyl(ethylsulfonyl)amino]-methyl]-1H-indol-3-yl]propyl]piperazine]
215 to 217 °C (dec.)	COc1cncnc1N1CCN(CCCc2c[nH]c3ccc(C(C)=O)cc23)CC1.Cl
> 250 °C (dec.)	COc1cncnc1N1CCN(CCCc2c[nH]c3c(F)cc(F)cc23)CC1 (as salt: HCl) [Example 76]
227 to 230 °C	COc1cncnc1N1CCN(CCCc2c[nH]c3ccc(N(C)S(C)(=O)=O)cc23)CC1 (as salt: HCl) [Example 65]
169 to 172 °C (dec.)	COc1cncnc1N1CCN(CCC(C)c2c[nH]c3ccccc23)CC1 (stereo not shown) (as salt: hydrochloride) [Example 53, 1-[3-(1H-indol-3-yl)butyl]-4-(5-methoxy-4-pyrimidinyl)piperazine]
180 °C (dec.)	COc1cncnc1N1CCN(CCCc2c[nH]c3ccc(OCc4ccccc4)cc23)CC1 (as salt: HCl) (hydrate or solvate) [Example 72]
210 °C (dec.)	COc1cncnc1N1CCN(CCCc2c[nH]c3ccc(CS(=O)(=O)N(C)C)cc23)CC1 (as salt: hydrochloride) (hydrate or solvate) [Example 30, 1-[3-[5-[[(Dimethylamino)sulfonyl]methyl]-1H-indol-3-yl]propyl]-4-(5-methoxy-4-pyrimidinyl)piperazine]
> 230 °C	COc1cncnc1N1CCN(CCCc2c[nH]c3ccc(N(C)S(=O)(=O)C(F)(F)F)cc23)CC1 (as salt: salt) [Example 26, 1-[3-[5-[Methyl(trifluoromethanesulfonyl)amino]-1H-indol-3-yl]propyl]-4-(5-methoxy-4-pyrimidinyl)piperazine]
180 to 185 °C	CCCCNC(=O)c1ccc2[nH]cc(CCCN3CCN(c4ncncc4OC)CC3)c2c1.Cl
145 °C (dec.)	CCC(CCc1c[nH]c2ccccc12)N1CCN(c2ncncc2OC)CC1 (stereo not shown) (as salt: salt) [Example 54, 3-[3-[4-(5-Methoxy-4-pyrimidinyl)-1-piperazinyl]pentyl]indole]
169 to 174 °C	COc1cncnc1N1CCN(CCCc2c[nH]c3ccc(CNC(C)=O)cc23)CC1 (hydrate or solvate) [Example 40, 1-[[5-[[(Acetyl)amino]methyl]-1H-indol-3-yl]propyl]-4-(5-methoxy-4-pyrimidinyl)piperazine]
223 to 225 °C	CCS(=O)(=O)N(C)c1ccc2[nH]cc(CCCN3CCN(c4ncncc4OC)CC3)c2c1 (as salt: HCl) [Example 68]

Structure (SMILES)	melting point
CCOc1cncnc1N1CCN(CCCc2c[nH]c3ccccc23)CC1.Cl.O (hydrate or solvate) [Example 52, 4-(5-Ethoxy-4-pyrimidinyl)-1-[3-(1H-indol-3-yl)propyl]piperazine hydrochloride hydrate]	> 230 °C
